Test results taken from ChEMBL document CHEMBL6103579, “Antiproliferative activity of selenium-enriched coumarin derivatives on the SK-N-SH neuroblastoma cell line: Mechanistic insights” (Eur J Med Chem, 2025).
Calls of active or inactive are those of the source. No cut-off for these calls is given here.

How the values were obtained:
[1] = Toxicity in female ICR mouse assessed as change in organ coefficient of liver at 20 mg/kg, ip […] (reference value: 0.058+/-0.010); assay type: organism-based; conditions: in vivo
SK-N-SH [2] = assay: Downregulation of caspase-3 expression in human SK-N-SH cells at 3 to 9 uM measured after 48 hrs by Western blot analysis; assay type: functional, cell-based; conditions: dose 3-9 µM
SK-N-SH [3] = assay: Upregulation of AIF level in human SK-N-SH cells at 6 uM measured after 48 hrs by immunofluorescence staining based microscopic analysis; assay type: functional, cell-based
[4] = Toxicity in female ICR mouse assessed as effect on body weight loss at 10 to 20 mg/kg, ip; assay type: organism-based; conditions: in vivo, dose 10-20 mg/kg
[5] = (§1) Upregulation of E-cadherin expression in human SK-N-SH cells measured after 48 hrs by Western blot analysis relative to control; assay type: functional; conditions: dose 3-9 µM, at 3 to 9 µM
SK-N-SH [6] = assay: as §1; assay type: functional; conditions: dose 3-9 µM
[7] = Downregulation of vimentin expression in human SK-N-SH cells at 3 to 9 uM measured after 48 hrs by Western blot analysis relative to control; assay type: functional; conditions: dose 3-9 µM
[8] = Antiproliferative activity against human Neuroblastoma cell assessed as inhibition of cell growth incubated for 60 hrs by CCK-8 method; assay type: functional, cell-based
SK-N-SH [9] = assay: Inhibition of cell migration in human SK-N-SH cells at 2 uM measured after 48 hrs by crystal violet staining based microscopic analysis relative to control; assay type: functional
SK-N-SH [10] = assay: Induction of mitochondrial dysfunction in human SK-N-SH cells assessed as appearance of ring like distribution at 6 uM measured upto 48 hrs; assay type: functional, cell-based
SK-N-SH [11] = assay: Induction of apoptosis in human SK-N-SH cells assessed as increase in apoptotic cells at 3 to 9 uM measured after 48 hrs by FITC and PI staining based flow cytometry analysis relative to control; assay type: functional; conditions: dose 3-9 µM
SK-N-SH [12] = assay: Inhibition of colony formation in human SK-N-SH cells assessed as reduction in colony size at 0.5 to 2 uM preincubated for 24 hrs followed by incubation under compound free medium for 8 days by crystal violet staining based analysis; assay type: functional, cell-based; conditions: dose 0.5-2 µM
SK-N-SH [13] = assay: Downregulation of caspase-9 expression in human SK-N-SH cells at 3 to 9 uM measured after 48 hrs by Western blot analysis; assay type: functional, cell-based; conditions: dose 3-9 µM
SK-N-SH [14] = assay: Downregulation of Bcl-2 expression in human SK-N-SH cells at 3 to 9 uM measured after 48 hrs by Western blot analysis; assay type: functional, cell-based; conditions: dose 3-9 µM
SK-N-SH [15] = assay: Inhibition of cell migration in human SK-N-SH cells at 0.5 to 2 uM measured after 48 hrs by crystal violet staining based microscopic analysis; assay type: functional; conditions: dose 0.5-2 µM
N2a [16] = assay: Antitumor activity against mouse N2a cells implanted in female ICR mouse model assessed as reduction in tumor weight at 20 mg/kg, ip measured upto 8 days (reference value: 0.9 +/-0.26 g); assay type: functional; conditions: time <= 8 day
N2a [17] = assay: Antitumor activity against mouse N2a cells implanted in female ICR mouse model assessed as change in body weight at 10 mg/kg, ip measured upto 8 days (reference value: 25.54 +/-2.19 g); assay type: functional; conditions: time <= 8 day
[18] = Toxicity in female ICR mouse assessed as change in organ coefficient of spleen at 10 mg/kg, ip […] (reference value: 0.006+/-0.002); assay type: organism-based; conditions: in vivo
[19] = Drug localization in mitochondria of living human SK-N-SH cells assessed as colocalization at 6 uM incubated for 48 hrs by DAPI staining based fluorescence microscopic analysis; assay type: ADME
[20] = Antiproliferative activity against human Embryonic lung cell assessed as inhibition of cell growth incubated for 60 hrs by CCK-8 method; assay type: toxicity, cell-based
[21] = Toxicity in female ICR mouse assessed as appearance of homogenous renal corpuscles in kidney at 10 to 20 mg/kg, ip H and E staining based analysis; assay type: organism-based; conditions: in vivo, dose 10-20 mg/kg
SK-N-SH [22] = assay: Induction of mitochondrial dysfunction in human SK-N-SH cells assessed as increase in intracellular green fluorescence intensity at 3 to 9 uM; assay type: functional, cell-based; conditions: dose 3-9 µM
SK-N-SH [23] = assay: Upregulation of Bax/[…] ratio in human SK-N-SH cells at 3 to 9 uM measured after 48 hrs by Western blot analysis; assay type: functional, cell-based; conditions: dose 3-9 µM
[24] = Toxicity in female ICR mouse assessed as histomorphological changes in heart at 10 to 20 mg/kg, ip H and E staining based analysis; assay type: organism-based; conditions: in vivo, dose 10-20 mg/kg
N2a [25] = assay: Antitumor activity against mouse N2a cells implanted in female ICR mouse model assessed as suppression of tumor cell proliferation administered as ip dose measured upto 8 days by Ki67 staining based analysis; assay type: functional, organism-based; conditions: dose 10-20 mg/kg, time <= 8.0 day
[26] = Toxicity in female ICR mouse assessed as change in organ coefficient of spleen at 20 mg/kg, ip […] (reference value: 0.006+/-0.002); assay type: organism-based; conditions: in vivo
[27] = Toxicity in female ICR mouse assessed as change in organ coefficient of lung at 10 mg/kg, ip […] (reference value: 0.007+/-0.001); assay type: organism-based; conditions: in vivo
SK-N-SH [28] = assay: Induction of mitochondrial dysfunction in human SK-N-SH cells assessed as appearance of fragmented mitochondria at 6 uM measured after 48 hrs by fluorescence microscopic analysis; assay type: functional, cell-based
[29] = Downregulation of N-cadherin expression in human SK-N-SH cells at 6 uM measured after 48 hrs by Western blot analysis relative to control; assay type: functional
N2a [30] = assay: Antitumor activity against mouse N2a cells implanted in female ICR mouse model assessed as tumor inhibition rate at 20 mg/kg, ip measured upto 8 days relative to control; assay type: functional; set-up: scale not given: the % may be the effect or the level left; conditions: time <= 8 day
SK-N-SH [31] = assay: Inhibition of cell invasion in human SK-N-SH cells at 2 uM measured after 48 hrs by crystal violet staining based microscopic analysis relative to control; assay type: functional
[32] = Toxicity in female ICR mouse assessed as change in organ coefficient of kidney at 10 mg/kg, ip […] (reference value: 0.007); assay type: organism-based; conditions: in vivo

SMILES: N#C[Se]CCCOc1ccc2cc(C(=O)N3N=C(c4ccc(F)cc4)CC3c3ccc(F)cc3)c(=O)oc2c1 (configuration not stated)
- Activity [1]: 0.059
- Activity (SK-N-SH [2]): Active
- Activity (SK-N-SH [3]): Active
- Activity [4]: Non-toxic
- Activity [5]: 32.3%
- Activity (SK-N-SH [6]): Dose-dependent-effect
- Activity [7]: 33.1%
- IC50 [8]: 2500 nM
- inhibition at 2 µM (SK-N-SH [9]): 83.2%
- Activity (SK-N-SH [10]): Active
- Activity (SK-N-SH [11]): 47.4%
- inhibition (SK-N-SH [12]): Active
- Activity (SK-N-SH [13]): Active
- Activity (SK-N-SH [14]): Active
- inhibition (SK-N-SH [15]): Active
- Activity (N2a [16]): 0.06 g
- Activity (N2a [17]): 27.2 g
- Activity [18]: 0.006
- Drug uptake [19]: Active
- Activity [20]: Non-toxic
- Activity [21]: Non-toxic
- Activity (SK-N-SH [22]): Active
- Activity (SK-N-SH [23]): Active
- Activity [24]: Non-toxic
- Activity (N2a [25]): Dose-dependent-effect
- Activity [26]: 0.005
- Activity [27]: 0.007
- Activity (SK-N-SH [28]): Active
- Activity [29]: 63.1%
- Activity (N2a [30]): 93.3%
- inhibition at 2 µM (SK-N-SH [31]): 78.4%
- Activity [32]: 0.007
